According to PubChem BioAssay (NCI):
Where “and” joins values, the source holds several entries; their conditions need not be identical. Identical values can stand only once.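 Where inhibition never reached the appropriate level, the endpoint shown equals the highest concentration tested. Otherwise, values were interpolated linearly from a five-concentration, 48-hour dose response in 96-well plates. The concentration for 50% growth inhibition is given as GI50. TGI marks complete inhibition of growth.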

Key:
Assay in all cases: NCI tumour cell line growth inhibition, 48 h
U251 CNS = test system: U251 CNS
A549 NSCLC = test system: A549 NSCLC
SK-MEL-28 melanoma = test system: SK-MEL-28 melanoma
OVCAR-5 ovarian = test system: OVCAR-5 ovarian
MALME-3M melanoma = test system: MALME-3M melanoma
HCC-2998 colon = test system: HCC-2998 colon
RPMI-8226 leukemia = test system: RPMI-8226 leukemia
NCI/ADR-RES ovarian = test system: NCI/ADR-RES ovarian
HCT-116 colon = test system: HCT-116 colon
MDA-MB-435 = test system: MDA-MB-435

SMILES	GI50 (U251 CNS) [µM]	TGI (U251 CNS) [µM]	GI50 (A549 NSCLC) [µM]	TGI (A549 NSCLC) [µM]	GI50 (SK-MEL-28 melanoma)	TGI (SK-MEL-28 melanoma) [µM]	GI50 (OVCAR-5 ovarian) [µM]	TGI (OVCAR-5 ovarian) [µM]	GI50 (MALME-3M melanoma) [µM]	TGI (MALME-3M melanoma) [µM]	GI50 (HCC-2998 colon) [µM]	TGI (HCC-2998 colon) [µM]	GI50 (RPMI-8226 leukemia) [µM]	TGI (RPMI-8226 leukemia) [µM]	GI50 (NCI/ADR-RES ovarian) [µM]	TGI (NCI/ADR-RES ovarian) [µM]	GI50 (HCT-116 colon) [µM]	TGI (HCT-116 colon) [µM]	GI50 (MDA-MB-435) [µM]	TGI (MDA-MB-435) [µM]
O=S(=O)(c1ccc(Cl)cc1)C(Cl)(Cl)Cl	3.96	21.1	3.46	> 50	4.47 µM	24	12.7	69.6	0.244	3.89	1.42	5.87	3.35	> 52.9	1.57	> 24.5	2.43	11.3	0.908	4.7
O=C1c2cccnc2C(=O)c2c1c(C(=O)NCCCN1CCCCC1)c1ccccn21	1.42	3.21	1.25	3.8	3.15 µM	10.5	1.85	7.44	0.226	0.684	0.529	2.04	3.43	> 100	2.08	7.37	0.337	1.22	0.403	1.52
Fc1ccc(/C=N/n2c(-c3ccc(F)c(Cl)c3)nn(CNc3ccccc3C(F)(F)F)c2=S)cc1	69.1	> 100	52.8	> 100	97.2 µM	> 100	> 100	> 100	27.2	95.7	89.7	> 100	38.6	> 100	41.2	> 100	55.4	> 100	43.1	> 100
CCCN(CCS(C)(=O)=O)Cc1ccc(-c2ccc3ncnc(Nc4ccc(OCc5cccc(F)c5)c(Cl)c4)c3c2)o1	> 25	> 25	> 25	> 25	> 25 µM	> 25	> 25	> 25	> 25	> 25	> 25	> 25	> 20.8	> 25	12	> 25	> 25	> 25	> 25	> 25
COc1ccccc1-c1cc(=O)c2cc(C)cnc2[nH]1	27.8	> 100		> 100		> 100		> 100		> 100		> 100		> 100		47.1	42.8	> 100		27.3
CN1CCN(C(=O)c2cc(-c3ccc4ncnc(N5CCc6cc(F)c(Cl)cc65)c4c3)cnc2N)CC1	0.348	5.71	0.194	1.8	0.24 µM	3.61	0.29	13.8	0.123	0.843	0.242	1.65	0.124	0.557	0.723	10.2	0.237	2.89	0.201	1.2
NC(=O)c1csc(C2OC(CO)C(O)C2O)n1 (centres undefined)	45.5	2540	130	> 10000	> 80.6 µM and 17.2 µM	1690		> 9720		> 7980	75.8	> 10000	> 20.1	8150	47.4	3010		6870	43.7	> 4870
